Several values for one entry are separate records, joined by “and”; a condition that tells them apart may be missing. Equal values may be shown once. Toxic doses and inconclusive results are not listed.
Tested on: L1210 leukemia ip in BDF1 mice, survival T/C
Experiment: NCI In Vivo Anticancer Drug Screen. Data for tumor model L1210 Leukemia (intraperitoneal) in B6D2F1 (BDF1) mice
Settings: endpoint: mean survival time, higher = longer survival
In short: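 Value reflects the ratio of survival in compound-treated mice to survival in vehicle-treated controls, with both groups carrying the same transplanted tumor.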

[1] = dose: 100.0 mg/kg/injection, schedule: Q04DX003 (ip), vehicle: Klucel (hydroxypropylcellulose) (HPC)
[2] = dose: 200.0 mg/kg/injection, schedule: Q04DX003 (ip), vehicle: Klucel (hydroxypropylcellulose) (HPC)
[3] = dose: 400.0 mg/kg/injection, schedule: Q04DX003 (ip), vehicle: Klucel (hydroxypropylcellulose) (HPC)
[4] = dose: 100.0 mg/kg/injection, schedule: Q01DX009 (ip), vehicle: saline with Tween-80
[5] = dose: 100.0 mg/kg/injection, schedule: Q04DX002 (ip), vehicle: saline with Tween-80
[6] = dose: 200.0 mg/kg/injection, schedule: Q01DX009 (ip), vehicle: saline with Tween-80
[7] = dose: 400.0 mg/kg/injection, schedule: Q01DX009 (ip), vehicle: saline with Tween-80
[8] = dose: 50.0 mg/kg/injection, schedule: Q01DX009 (ip), vehicle: saline with Tween-80
[9] = dose: 100.0 mg/kg/injection, schedule: Q04DX003 (ip), vehicle: saline with Tween-80
[10] = dose: 200.0 mg/kg/injection, schedule: Q04DX003 (ip), vehicle: saline with Tween-80
[11] = dose: 400.0 mg/kg/injection, schedule: Q04DX003 (ip), vehicle: saline with Tween-80
[12] = dose: 100.0 mg/kg/injection, schedule: Q01DX001 (ip), vehicle: saline with Tween-80
[13] = dose: 200.0 mg/kg/injection, schedule: Q01DX001 (ip), vehicle: saline with Tween-80

## O=C(NC(=S)Nc1ccc(F)cc1)c1cccc2ccccc12
dose: 100.0 mg/kg/injection, schedule: Q01DX009 (ip), vehicle: Klucel (hydroxypropylcellulose) (HPC)
  T/C: 96 % of control
[1]
  T/C: 104 % of control
dose: 200.0 mg/kg/injection, schedule: Q01DX009 (ip), vehicle: Klucel (hydroxypropylcellulose) (HPC)
  T/C: 91 % of control
[2]
  T/C: 100 % of control
dose: 400.0 mg/kg/injection, schedule: Q01DX009 (ip), vehicle: Klucel (hydroxypropylcellulose) (HPC)
  T/C: 101 % of control
[3]
  T/C: 97 % of control

## N#Cc1c(F)c(F)c(Oc2c(F)c(F)c(F)c(Oc3c(F)c(F)c(C#N)c(F)c3F)c2F)c(F)c1F
dose: 100.0 mg/kg/injection, schedule: Q01DX009 (ip), vehicle: other
  T/C: 103 % of control
dose: 100.0 mg/kg/injection, schedule: Q04DX003 (ip), vehicle: other
  T/C: 100 % of control
dose: 200.0 mg/kg/injection, schedule: Q01DX009 (ip), vehicle: other
  T/C: 100 % of control
dose: 200.0 mg/kg/injection, schedule: Q04DX003 (ip), vehicle: other
  T/C: 97 % of control and 100 % of control
dose: 400.0 mg/kg/injection, schedule: Q04DX003 (ip), vehicle: other
  T/C: 86 % of control

## CCCC(=O)Oc1ccc(/C=N/NC(N)=S)nc1
[4]
  T/C: 119 % of control
[5]
  T/C: 113 % of control
[6]
  T/C: 156 % of control
[7]
  T/C: 176 % of control
dose: 600.0 mg/kg/injection, schedule: Q01DX009 (ip), vehicle: saline with Tween-80
  T/C: 109 % of control

## Cc1cc(OC(=O)Nc2ccc(Cl)cc2C(F)(F)F)c(C)cc1Cl
[8]
  T/C: 98 % of control
[4]
  T/C: 95 % of control
[6]
  T/C: 109 % of control

## CCCC(=O)OCC1CO1 (stereo not drawn)
dose: 100.0 mg/kg/injection, schedule: Q01DX001 (ip), vehicle: Klucel (hydroxypropylcellulose) (HPC)
  T/C: 100 % of control
[1]
  T/C: 104 % of control
dose: 200.0 mg/kg/injection, schedule: Q01DX001 (ip), vehicle: Klucel (hydroxypropylcellulose) (HPC)
  T/C: 104 % of control
[2]
  T/C: 98 % of control
dose: 400.0 mg/kg/injection, schedule: Q01DX001 (ip), vehicle: Klucel (hydroxypropylcellulose) (HPC)
  T/C: 102 % of control
[3]
  T/C: 106 % of control

## COc1cc(OC)c2c(c1Cl)OC1(C(=O)C=CCC1C)C2=O (stereo not drawn)
[9]
  T/C: 98 % of control
[10]
  T/C: 104 % of control
[11]
  T/C: 96 % of control

## C=C(C)[C@@H]1CC[C@]2(C(=O)OC)CC[C@]3(C)[C@H](CC[C@@H]4[C@@]5(C)CC[C@H](O)C(C)(C)[C@@H]5CC[C@]43C)[C@@H]12
dose: 100.0 mg/kg/injection, schedule: Q04DX003 (ip), vehicle: alcohol
  T/C: 103 % of control
dose: 200.0 mg/kg/injection, schedule: Q04DX003 (ip), vehicle: alcohol
  T/C: 100 % of control
dose: 400.0 mg/kg/injection, schedule: Q04DX003 (ip), vehicle: alcohol
  T/C: 91 % of control

## COC(=O)c1cc(OC)c(OC)c(OC)c1
[12]
  T/C: 100 % of control
[13]
  T/C: 98 % of control
dose: 400.0 mg/kg/injection, schedule: Q01DX001 (ip), vehicle: saline with Tween-80
  T/C: 96 % of control

## CN(C)c1ccc(/C=N/NC(=O)c2ccc(O)cc2)c(Cl)c1
dose: 25.0 mg/kg/injection, schedule: Q01DX009 (ip), vehicle: saline with Tween-80
  T/C: 97 % of control and 103 % of control
dose: 50.0 mg/kg/injection, schedule: Q01DX001 (ip), vehicle: saline with Tween-80
  T/C: 86 % of control
[8]
  T/C: 102 % of control and 113 % of control
[12]
  T/C: 88 % of control
[5]
  T/C: 97 % of control and 98 % of control
[9]
  T/C: 104 % of control
[13]
  T/C: 94 % of control
dose: 200.0 mg/kg/injection, schedule: Q04DX002 (ip), vehicle: saline with Tween-80
  T/C: 97 % of control and 91 % of control
[10]
  T/C: 87 % of control
[7]
  T/C: 92 % of control
dose: 400.0 mg/kg/injection, schedule: Q04DX002 (ip), vehicle: saline with Tween-80
  T/C: 94 % of control and 90 % of control
[11]
  T/C: 95 % of control

## CNCCc1cc2c(cc1C=O)OCO2
dose: 75.0 mg/kg/injection, schedule: Q01DX001 (ip), vehicle: saline
  T/C: 96 % of control
dose: 150.0 mg/kg/injection, schedule: Q01DX001 (ip), vehicle: saline
  T/C: 106 % of control

## NC(=O)NC(NC(=O)NC(NC(N)=O)c1ccco1)c1ccco1 (stereo not drawn)
[1]
  T/C: 102 % of control
[2]
  T/C: 96 % of control
[3]
  T/C: 88 % of control

## Cc1ccnc(SC#N)n1
dose: 5.0 mg/kg/injection, schedule: Q01DX001 (ip), vehicle: other
  T/C: 105 % of control
dose: 10.0 mg/kg/injection, schedule: Q01DX001 (ip), vehicle: other
  T/C: 105 % of control

— PubChem BioAssay AID248 (DTP/NCI, 2004)
